The source of these data is patent publication US11312680B2, “Method for treating a patient having a colon cancer” (King Abdulaziz University, priority 2019, dated 2022).

Broadly, the IC50 is the concentration that gives 50% inhibition. Lower therefore signals inhibition by little substance.

The test system of test [1] is MDA-MB-231 and BT-549 and MDA-MB-468 cells. Conditions: MDA-MB-231, BT-549, MDA-MB-468 cells; literature; cited from earlier work.
The subject of test [2] is HL-60 leukemia cells. The test is described as follows: CellTiter-Blue cell viability assay against HL-60 cells. The test is classed as cell-based. Conditions: Homo sapiens, HL-60, 48 h, leukemia cells HL60, CellTiter-Blue. As for the experimental part:
HL-60 cells were purchased from CLS Cell Line Service GmbH (Eppelheim, Germany) and cultured in Roswell Park Memorial Institute-1640 medium (RPMI-1640; Thermo Fisher Scientific, Inc; Waltham, Mass., USA) supplemented with 10% fetal bovine serum (FBS; Thermo Fisher Scientific) and ciprofloxacin (10 μg/ml; Cipla Limited; Mumbai, India), at 37° C. with 5% CO2 in a humidified incubator.
The CellTiter®-Blue Cell Viability assay was acquired from Promega Corporation (Madison, Wis., USA). Cell viability assay was performed as follows. The cells (10^4/well) were incubated with KAC-12 at a concentration gradient ranging from 0.01 to 100 μM, in 96-well plates for 48 h at 37° C. Subsequently, 20 μL of CellTiter®-Blue Cell Viability reagent was added to each well and incubated for an additional 2 h for the development of fluorescence. The fluorescence emission was measured at 590 nm using the SpectraMax® i3x Multi-Mode microplate reader (Molecular Devices, LLC; San Jose, Calif., USA.) and plotted against drug concentrations to determine the mean inhibitory concentration of KAC-12 producing 50% decrease in cell viability (IC50).

The test system of test [3] is HCT116 colon cancer cells. The test is described as follows: MTT viability assay against HCT-116 cells. In kind it is cell-based, human. As for the experimental part:
(§1) The KAC compounds were evaluated for antiproliferative effect against HCT-116 and MCF7 cell lines using the MTT viability assay and to calculate the relative IC50 values for each compound. Cells were seeded in triplicate in 96-well plates at a density of 10×10^3 cells/mL in a total volume of 100 μL per well and allowed to adhere overnight. Cells were treated with various concentrations of tested KAC compounds or 0.1% of DMSO (vehicle) for 27 h. Then the medium was discarded and 100 μL per well of MTT (5 mg/mL in PBS) containing medium was added. After incubation at 37° C. for 3 h, the MTT-containing medium was replaced by DMSO (100 μL per well) to dissolve the formazon crystal and incubated for 10 min. Absorbance of the solution was measured by microplate reader at […]. The IC50 values were calculated according to the dose-dependent curves using GraphPad prism, version 5.0. All the experiments were repeated in at least three independent experiments.
A general note: Formazan colour is commonly taken as a measure of viable cells.

For test [4], the system named is N87 stomach cancer cells. The test is described as follows: MTT cytotoxicity assay against N87 cells. In kind it is cell-based, human. As for the experimental part: Cytotoxicity of all the compounds against N87 cells was determined using MTT assay. Briefly, 25,000 cells suspended in 0.1 mL of cell culture media were added in each well of a 96-well plate. After allowing the cells to attach for 24 h, media was aspirated from all the wells, and different concentrations of anticancer compounds in cell culture media were added to the wells in triplicate. Six wells were incubated with drug free media, and used as control. 96 hours after the treatment, 25 μL of MTT solution (5 mg/mL in phosphate saline buffer, pH 7.4) was added to each well, and the plate was incubated for 4.5 hours at 37° C. in the incubator. After incubation, 100 μL of 10% SDS in 0.01 M hydrochloric acid was added to each well, and the plate was incubated overnight at 37° C. The next day absorbance was determined in each well at 590 nm using a plate reader. IC50 value of each compound was determined using GraphPad Prism.

The test system of test [5] is HCT-116 cells. The test is described as follows: Cell cycle analysis of HCT-116 cells (propidium iodide flow cytometry). Conditions: for percentage of cells in G2/M phase: 24 h, control 9.0%; for cells in G2/M phase / apoptosis, population in the sub-G1 phase: 48 h; for apoptosis, population in the sub-G1 phase: control 0.9%. The test is classed as cell-based, human. The method, then:
Flow cytometric analysis was used to determine DNA level in any given cell that has been stained with propidium iodide (PI). PI is a fluorescent DNA intercalating agent which binds stoichiometrically to nucleic acid. When bounded to DNA, its fluorescence intensity increases 20 fold (excitation 488 nm and emission 600 nm). As cells pass singly through a beam of light their cell cycle state is analyzed. The fluorescent intensity of DNA-bound PI correlates to the DNA content of the cell. This allows the cell population in G1 phase (diploid −2n), G2M phase (4n), or S phase (2n-4n) to be differentiated by plotting a histogram of the PI fluorescence versus cell counts (linear scale). G1 and G2M can be seen as distinct peaks, with the S phase shown as the population between these two peaks. Apoptotic cells are hypo-diploid (pre-G1) and have a low PI fluorescence due to DNA fragmentation [Riccardi, C.; Nicoletti, I., Analysis of apoptosis by propidium iodide staining and flow cytometry. Nature protocols 2006, 1 (3), 1458-1461].
To study cell cycle stage, adherent and detached cells were collected by trypsinization and centrifuged at 800×g for 15 min. Cells were washed twice with ice-cold PBS and fixed with slow addition of ice-cold 70% ethanol overnight at −20° C. Fixed cells were centrifuged at 800×g for 15 min and the pellet was re-suspended in 400 μL PBS and transferred to LP5 FACS tubes then stained with 50 μg/mL of PI, containing 50 μg/mL of DNase-free RNase A (to degraded any double strand RNA present), at 37° C. for 30 min. The DNA content of cells (10,000 cells/experimental group) was analyzed by flow cytometer at 488 nm using a FACSCalibur flow cytometer (BD Biosciences, San Jose, Calif.).
In general, G2/M cell cycle arrest is strongly associated with inhibition of tubulin polymerization. The effect of KX-01 analogue, KAC-3, was investigated with colon cancer HCT-116 cells by flow cytometry at two concentrations (5 μM and 10 μM) for 24 and 48 hours. […] The percentage of cells in G2/M phase after 24 h was 13.3% and 41.7% at concentrations of 5 μM and 10 μM, respectively compared to the control (9.0%) (see FIG. 9). […] The cell cycle analysis results for KAC-3 are typical for tubulin targeting agents, which characteristically cause G2/M blockade followed by apoptosis [Perez, E. A., Microtubule inhibitors: Differentiating tubulin-inhibiting agents based on mechanisms of action, clinical activity, and resistance. Molecular cancer therapeutics 2009, 8 (8), 2086-2095]. […] Cancer research and treatment: official journal of Korean Cancer Association 2017, 49 (3), 643-655; and Anbalagan, M.; Carrier, L.; Glodowski, S.; Hangauer, D.; Shan, B.; Rowan, B. G., KX-01, a novel Src kinase inhibitor directed toward the peptide substrate site, synergizes with tamoxifen in estrogen receptor a positive breast cancer. Breast cancer research and treatment 2012, 132 (2), 391-409]. […] Frontiers in pharmacology 2017, 8, 244].
(In general: Flow cytometry measures light scatter and fluorescence of single cells or particles in a stream.)

Test [6] has as its system MCF7 breast cancer cells. The test is described as follows: MTT viability assay against MCF7 cells. In kind it is cell-based, human. As for the experimental part:
as §1

For the molecule `O=C(Cc1ccc(-c2ccc(OCCN3CCOCC3)cc2)cn1)NCc1ccccc1` [KX-01], the “cell cycle effect” value in test [1] was “induced significant G2M phase arrest”.

Turning to `Nc1ccc(CC(=O)NCc2ccccc2)cc1` [KAC-14, 2-(4-aminophenyl)-N-benzylacetamide], the IC50 in test [2] is over 50 µM; in test [3] (Homo sapiens, HCT-116, 27 h) it was over 50 µM; in test [4] (Homo sapiens, 96 h), over 50 µM. In addition, the “IC50 HCT116” value in test [3] (27 h) is “did not affect any of the tested cell lines”.

Turning to `O=C(Cc1ccc(NC(=O)c2ccccc2C(=O)N2CCOCC2)cc1)NCc1ccccc1` [KAC-03, N-(4-(2-(benzylamino)-2-oxoethyl)phenyl)-2-(morpholine-4-carbonyl)benzamide], the “percentage of cells in G2/M phase” value amounted to 13.3% in test [5] (HCT-116, 5 μM) and 41.7% in test [5] (HCT-116, 10 μM). The “cells in G2/M phase” value in test [5] (HCT-116, 5 μM) was 30.7%; in test [5] (HCT-116, 10 μM), 32.8%. Also, the “apoptosis, population in the sub-G1 phase” value in test [5] (HCT-116, 5 μM) came out at 8.7%; in test [5] (HCT-116, 10 μM), 11.6%. Further, the “cell cycle effect” value in test [5] (HCT-116, 24 and 48 hours) was “significant G2/M arrest in a time- and concentration-dependent manner”. Moreover, the half-inhibitory concentration (IC50) stood at 3.5 µM in test [6] (Homo sapiens, MCF7, 27 h); 4.76 µM in test [3] (27 h); 4.8 µM in test [3] (Homo sapiens, HCT-116, 27 h); 18.2 µM in test [4] (Homo sapiens, 96 h).

Take `CCC(=O)Nc1ccc(CC(=O)NCc2ccccc2)cc1` [KAC-09, N-(4-(2-(benzylamino)-2-oxoethyl)phenyl)propionamide]: the 50% inhibitory concentration (IC50) in test [6] (27 h) is 37 µM; in test [6] (Homo sapiens, MCF7, 27 h) it was 37 µM; in test [3] (Homo sapiens, HCT-116, 27 h), over 50 µM; in test [4] (96 hours), 7.24 µM; in test [4] (Homo sapiens, 96 h), 7.2 µM.
